Measurements taken from patent EP3766544A1 (Centre Hospitalier Regional Universitaire de Lille, priority 2019, dated 2021).

Key:
[1] = biological target: T1, interaction between PD-1 and PD-L1 (Homo sapiens, UniProt Q9NZQ7); experiment: FRET assay (PD-1-YFP / SHP-2-CFP in CHO-K1 cells, activation with PD-L1); assay type: cell-based; conditions: co-transfected PD-1-SHP2 CHO-K1 cells, after addition of PD-L1 (10 µM)
T1 construct: expressed in transfected cells; host or cells: CHO-K1 co-transfected with PD-1-YFP and SHP-2-CFP
Text: Energy transfer between fluorescent molecules (FRET) is a technique that allows visualizing interactions between 2 fluorescent molecules. A fluorescent molecule, called "donor", will transfer its energy, once excited, to another fluorescent molecule called "acceptor". The fluorescence of the donor decreases while the acceptor's one increases (see Figure 1).
A model was developed using CHO-K1 cells involving overexpression of proteins of interest. It involves the expression of a PD-1-YFP fluorescent protein and a second fluorescent protein SHP-2-CFP (phosphatase recruited during the interaction between PD-1 and PD-L1).
A Spectramax i3 is configured according to the selected fluorochromes with their excitation and emission spectra. Endpoint reading is performed, at the center of the well; the reading time is 2 minutes for a 96-well plate.
For this test, a 96-well flat-bottomed white plate is required. All mixes introduced into the plate are made of triplicate. The negative control is provided by the CHO transfected by the void plasmid, the positive control is provided by CHO transfected with a plasmid containing the YFP-CFP fusion protein making it possible to mimic the FRET phenomenon. […] It is also necessary to remove the background noise, that is to say the FRET without activation with PD-L1. […] Nivolumab was taken as positive control of interaction's inhibitions.

hPD-L1-eGFP = biological target: T2, hPD-L1-eGFP (Homo sapiens, UniProt Q9NZQ7); experiment: Microscale thermophoresis (MST) PD-L1 binding assay; conditions: CHO-K1 cell lysate, hPD-L1-eGFP 35 nM, PBS-T buffer (0.05% Tween 20)
T2 construct: expressed in transfected cells; host or cells: CHO-K1 (cell lysate used)
Text: The quantity of cells for this protocol can vary from 10 to 40 million. […] Different types of additives such as Tween 20, various MgCl2 concentrations, BSA have been tested to avoid sample aggregation and different types of capillaries have been investigated to reduce the adsorption within capillaries. Various buffers have also been tested and are listed in the related section. The fluorescence measurement is made using a small quantity of cell lysate within a capillary chosen among different available capillaries: standard, premium, hydrophilic or hydrophilic. The highest concentration of ligand must be at least 20 times higher than the expected dissociation constant of the interaction under study. However, the lowest concentration of ligand must be lower than the concentration of the fluorescent protein. An online tool created by NanoTemper® can be used and allows determining the range of ideal concentration. The concentration of the fluorescent protein can be determined using a GFP dosage kit (Abnova KA0911) or a calibration curve.
CHO-K1 cells were transfected with the Cell Line Nucleofector® Kit T, Program U-023 and the pcDNA 3.1 hygro plasmid expressing PD-1-eGFP. 2 µg of plasmid was transfected in one million CHO-K1 cells suspended in 100 µL Nucleofector solution. Cells were analyzed 48 hours post Nucleofection® by flow cytometry. Cells are put under the appropriate selective pressure which will only allow growth of cells containing the DNA insert. After three weeks of selective pressure, the multiparametric analysis of transfected CHO-K1 cells over-expressing mPD-1-eGFP allows defining sub-populations which can be separated from the global population. The population of cells strongly expressing eGFP is analyzed by flow cytometry and kept for MicroScale Thermophoresis analysis. The exact same protocol from transfection to cytometry analysis is lead on CHO-K1 cells expressing the hPD-L1-eGFP protein.
MST was used to establish the binding affinity between PD-L1-eGFP and Compounds. Cell lysate was diluted in PBS-T buffer (0.05% Tween 20) to a final concentration at which the fluorescent signals of the GFP proteins were similar and above the typical detection limit of the Monolith NT.115 instrument (NanoTemper Technologies). […] For the binding between hPD-L1-eGFP with compounds, several dilutions were made between 1mM to 1 nM to cover a wide concentration range. Ten microliters of cell lysate are added to 10 µL of each ligand solution. Nivolumab was taken as reference.

[2] = In vitro spread test (CFSE CellTrace cell proliferation, flow cytometry); assay type: cell-based; conditions: IC50 of proliferation, flow cytometry D0 to D3
Text: The CellTrace™ Cell Proliferation Kits provide versatile and well-retained cell tracing reagents in a convenient and easyto-use form. Each kit contains a CellTrace™ reagent in single-use vials to permit small scale experiments without preparing excess quantities of stock solution. The CellTrace™ reagents readily diffuse into cells and bind covalently to intracellular amines, resulting in stable, well-retained fluorescent staining that can be fixed with aldehyde fixatives. Excess unconjugated reagent passively diffuses to the extracellular medium, where it can be quenched with complete media and washed away. The kit is supplied by ThermoFisher Scientific.
• 1. Number of days on which the manipulation is done: 3 (from D0 to D3: 4 passages in cytometry) • 2. Volume of cell suspension needed: 2.5ml (0.5ml / day) • 3. Number of cells needed: 2.5mlx0.5M / ml = 1.25M per cell line. • 4. Number the cells and check their viability. • 5. Prepare the desired number of cells. • 6. Centrifuge, resuspend at a 1M/mL concentration in PBS (the probe binds to the proteins of the medium) • 7. Add 0.5µM of CellTrace (dilute 1/10 of the stock solution, add 1 / 1000th in the PBS-cell mix: take 1µl of probe at the main concentration, add 9µL of PBS) • 8. Incubate for 20 minutes at 37 ° C in the dark. • 9. Add 5 volumes of medium to capture the excess of probe (1.2x5 = 6ml) • 10. Incubate for 5 minutes at 37 ° C. • 11. Centrifuge, resuspend the cells at the desired concentration of 0.5M / ml in preheated medium. Plate 24 wells. • 12. Establish the J0 at least 5h after marking. • 13. Flow cytometry is then performed to evaluate cell division and to determine an IC50 of proliferation using Graphpad.

T1 sequence (Q9NZQ7 19-238 limits assumed): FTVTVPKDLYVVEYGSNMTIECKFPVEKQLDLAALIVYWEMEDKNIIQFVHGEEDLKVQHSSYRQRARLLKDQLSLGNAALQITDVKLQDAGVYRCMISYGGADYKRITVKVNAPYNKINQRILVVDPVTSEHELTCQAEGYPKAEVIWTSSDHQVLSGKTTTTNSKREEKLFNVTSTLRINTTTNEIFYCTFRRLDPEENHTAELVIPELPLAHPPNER
T2 sequence (Q9NZQ7 19-290): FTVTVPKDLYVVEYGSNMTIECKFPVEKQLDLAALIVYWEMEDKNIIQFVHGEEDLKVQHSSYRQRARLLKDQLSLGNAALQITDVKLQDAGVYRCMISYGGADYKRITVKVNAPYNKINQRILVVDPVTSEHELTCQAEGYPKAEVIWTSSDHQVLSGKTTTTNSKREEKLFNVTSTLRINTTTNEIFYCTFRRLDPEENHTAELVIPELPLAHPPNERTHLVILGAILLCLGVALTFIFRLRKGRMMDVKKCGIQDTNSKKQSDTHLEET

| Structure (SMILES) | IC50 [1] | Kd (hPD-L1-eGFP) | In vitro spread test [2] | IC50 [2] |
| --- | --- | --- | --- | --- |
| COc1ccc(C2=NN(c3ccc(Cl)cc3Cl)C(=O)C2)cc1OC [ALIPD52, 1-(2,4-Dichlorophenyl)-3-(3,4-dimethoxyphenyl)-4,5-dihydro-1H-5-pyrazolone] | 196 ± 17 nM | 212 ± 23 nM | – | – |
| O=C1CC(C23CC4CC(CC(C4)C2)C3)=NN1c1cc(Cl)cc(Cl)c1 [ALIPD28, 3-(Adamantan-1-yl)-1-(3,5-dichlorophenyl)-4,5-dihydro-1H-5-pyrazolone] | 785 ± 87 nM | 890 ± 75 nM | – | – |
| COc1ccc(C2=NN(c3cc(Cl)ccc3Cl)C(=O)C2)cc1 | 12000 ± 3000 nM | 8000 ± 2000 nM | – | – |
| O=C1CC(c2ccccc2)=NN1c1ccc(Cl)cc1Cl | 9000 ± 5000 nM | 14000 ± 3000 nM | – | – |
| O=C1CC(C2CCCCCC2)=NN1c1ccc(Cl)cc1Cl | 67000 ± 9000 nM | 80000 ± 12000 nM | – | – |
| O=C1CC(c2ccc([N+](=O)[O-])cc2)=NN1c1ccc(Cl)cc1Cl [ALIPD33, 1-(2,4-Dichlorophenyl)-3-(4-nitrophenyl)-4,5-dihydro-1H-5-pyrazolone] | 43000 ± 6000 nM | 72000 ± 17000 nM | – | – |
| O=C1CC(C23CC4CC(CC(C4)C2)C3)=NN1c1ccccn1 [ALIPX57, 3-(Adamantan-1-yl)-1-(pyridin-2-yl)-4,5-dihydro-1H-5-pyrazolone] | 4 ± 2 nM | 340 ± 27 nM | – | 192 nM |

The next lines start with results.

| IC50 [1] | Kd (hPD-L1-eGFP) | Structure (SMILES) | In vitro spread test [2] | IC50 [2] |
| --- | --- | --- | --- | --- |
| 98 ± 12 nM | 110 ± 17 nM | O=C1CC(c2ccc(Cl)cc2Cl)=NN1c1ccccn1 [ALIPD26, 3-(2,4-Dichlorophenyl)-1-(pyridin-2-yl)-4,5-dihydro-1H-5-pyrazolone] | – | – |
| 7 nM | 23 nM | COc1ccccc1C1=NN(c2ccccn2)C(=O)C1 [ALIPD60, 3-(2-methoxyphenyl)-1-(2-pyridyl)-4,5-dihydro-1H-5-pyrazolone] | – | – |
| 33000 ± 7000 nM | 27000 ± 5000 nM | O=C1CC(c2ccc(Cl)cc2)=NN1c1ccccn1 [ALIPD59, 3-(4-chlorophenyl)-1-(2-pyridyl)-4,5-dihydro-1H-5-pyrazolone] | – | – |
| 51000 ± 3000 nM | 68000 ± 7000 nM | COc1ccc(C2=NN(c3ccc(Cl)cc3Cl)C(=O)C2)cc1 [ALIPX05, 1-(2,4-Dichlorophenyl)-3-(4-methoxyphenyl)-4,5-dihydro-1H-5-pyrazolone] | – | – |
| 230 ± 35 nM | 375 ± 43 nM | COc1ccc(C2=NN(c3ccc(OC)cc3)C(=O)C2)cc1 [ALIPD24, 1-(4-methoxyphenyl)-3-(4-methoxyphenyl)-4,5-dihydro-1H-5-pyrazolone] | No effect | – |
| 17 nM | 83 nM | COc1ccc(C2=NN(c3ccccn3)C(=O)C2)cc1 [ALIPD19, 3-(4-Methoxyphenyl) -1-(pyridin-2-yl)-4,5-dihydro-1H-5-pyrazolone] | – | 75 nM |
| 1100 nM | 1200 nM | O=C1CC(c2cccc(C(F)(F)F)c2)=NN1c1ccccn1 [ALIPD58, 1-(2-pyridyl)-3-[3-(trifluoromethyl)phenyl]-4,5-dihydro-1H-5-pyrazolone] | – | – |
| 15000 ± 5000 nM | 18000 ± 3000 nM | COc1ccc(C2=NN(c3cc(Cl)cc(Cl)c3)C(=O)C2)cc1 [ALIPX02, 1-(3,5-Dichlorophenyl)-3-(4-methoxyphenyl)-4,5-dihydro-1H-5-pyrazolone] | – | – |
